The values below are quoted from earlier work in patent publication US8802627B2, “Fusion protein composed of matrix metalloproteinase-2 inhibitor peptide derived from amyloid-B precursor protein and tissue inhibitor of metalloproteinase-2” (Oriental Yeast Co., Ltd., priority 2008, dated 2014).

The IC50 is the concentration needed to halve the response being measured.

The target of one data set is MMP-9 (Homo sapiens, UniProt P14780). To be noted: prior art literature, J. Biol. Chem. 278, 14020-14028, 2003; read-out: reported IC50 upon MMP-9.
MMP-9, sequence (P14780 94-707): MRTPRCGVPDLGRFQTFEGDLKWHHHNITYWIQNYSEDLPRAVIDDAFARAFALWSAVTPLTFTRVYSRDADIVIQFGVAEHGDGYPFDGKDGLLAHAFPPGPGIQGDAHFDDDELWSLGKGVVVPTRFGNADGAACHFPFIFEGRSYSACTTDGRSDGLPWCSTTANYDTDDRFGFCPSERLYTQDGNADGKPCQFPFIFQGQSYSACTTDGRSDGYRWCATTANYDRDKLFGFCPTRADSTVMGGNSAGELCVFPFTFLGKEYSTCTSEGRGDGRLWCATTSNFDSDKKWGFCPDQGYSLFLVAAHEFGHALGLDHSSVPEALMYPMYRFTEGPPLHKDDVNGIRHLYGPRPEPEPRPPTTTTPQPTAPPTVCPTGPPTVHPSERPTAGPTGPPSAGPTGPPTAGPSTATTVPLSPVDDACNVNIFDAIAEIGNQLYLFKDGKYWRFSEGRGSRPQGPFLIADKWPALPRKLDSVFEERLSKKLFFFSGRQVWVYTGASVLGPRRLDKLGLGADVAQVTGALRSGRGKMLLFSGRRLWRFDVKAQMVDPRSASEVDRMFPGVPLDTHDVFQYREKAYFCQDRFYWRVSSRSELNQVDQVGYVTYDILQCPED
A further data set concerns the target MT1-MMP catalytic domain (Homo sapiens, UniProt P50281). To be noted: prior art literature, J. Biol. Chem. 278, 14020-14028, 2003; read-out: reported IC50 upon MT1-MMP catalytic domain.
A further data set addresses T1, MMP-7 (Homo sapiens, UniProt P09237).
T1 sequence (P09237 95-267): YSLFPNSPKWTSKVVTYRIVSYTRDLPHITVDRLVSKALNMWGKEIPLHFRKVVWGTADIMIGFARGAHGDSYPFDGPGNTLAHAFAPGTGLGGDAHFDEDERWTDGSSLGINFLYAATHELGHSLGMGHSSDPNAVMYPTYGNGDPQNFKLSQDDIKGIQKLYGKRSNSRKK
Particulars: prior art literature, J. Biol. Chem. 278, 14020-14028, 2003; read-out: reported IC50 upon MMP-7.

In another data set the target is T2, MMP-2 (Homo sapiens, UniProt P08253).
T2 construct: which now consists of 551 amino acid residues is designated active MMP-2
T2 sequence (P08253 110-660): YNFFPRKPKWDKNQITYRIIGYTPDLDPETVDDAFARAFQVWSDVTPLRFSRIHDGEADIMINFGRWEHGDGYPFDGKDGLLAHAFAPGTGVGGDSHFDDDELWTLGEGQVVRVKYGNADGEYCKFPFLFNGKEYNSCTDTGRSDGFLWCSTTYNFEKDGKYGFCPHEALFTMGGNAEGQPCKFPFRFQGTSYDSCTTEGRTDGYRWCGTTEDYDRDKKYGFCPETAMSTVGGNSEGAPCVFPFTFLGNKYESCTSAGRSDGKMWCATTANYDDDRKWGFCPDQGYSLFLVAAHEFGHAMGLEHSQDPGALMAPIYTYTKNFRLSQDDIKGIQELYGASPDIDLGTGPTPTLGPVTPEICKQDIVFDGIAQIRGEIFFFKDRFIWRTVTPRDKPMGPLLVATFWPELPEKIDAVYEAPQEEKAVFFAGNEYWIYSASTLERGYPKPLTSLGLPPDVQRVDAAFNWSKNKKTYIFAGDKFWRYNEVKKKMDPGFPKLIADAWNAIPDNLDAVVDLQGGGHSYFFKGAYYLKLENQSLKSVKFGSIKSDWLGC
Particulars: prior art literature, J. Biol. Chem. 278, 14020-14028, 2003; read-out: reported IC50 upon MMP-2.

In the case of ISYGNDALMP [APP-IP], the IC50 on MMP-9 was 20 µM; on MT1-MMP catalytic domain, 2 µM; on MMP-7 it was 15 µM; on MMP-2, 0.03 µM.
